Assay results reported in the NIST ThermoML archive (doi:10.1021/acs.jced.8b00975).

Assay: xn = mol fraction of the nth substance listed
Conditions: Liquid, Vibrating tube method

C=C(C)C(=O)OCCN(C)C [2-(dimethylamino)ethyl methylpropenoate] + CO
mass density [kg/m3]
Conditions | 100 kPa | 5000 kPa | 10000 kPa | 15000 kPa | 20000 kPa | 25000 kPa | 30000 kPa | 35000 kPa
303.15 K, x1 = 0.0301 | – | – | – | – | 819.63 | 823.45 | 827.13 | 830.7
303.15 K, x1 = 0.0604 | – | – | – | – | 835.85 | 839.61 | 843.23 | 846.75
303.15 K, x1 = 0.1003 | – | – | – | – | 852.97 | 856.67 | 860.27 | 863.78
303.15 K, x1 = 0.1894 | – | – | – | – | 880.26 | 883.85 | 887.36 | 890.85
303.15 K, x1 = 0.3009 | – | – | – | – | 901.34 | 904.9 | 908.38 | 911.78
303.15 K, x1 = 0.4011 | – | – | – | – | 913.27 | 916.78 | 920.23 | 923.64
303.15 K, x1 = 0.4497 | – | – | – | – | 917.65 | 921.14 | 924.58 | 928.02
303.15 K, x1 = 0.5004 | – | – | – | – | 921.33 | 924.83 | 928.29 | 931.73
303.15 K, x1 = 0.5484 | – | – | – | – | 924.51 | 928 | 931.44 | 934.88
303.15 K, x1 = 0.6026 | – | – | – | – | 927.27 | 930.75 | 934.2 | 937.68
303.15 K, x1 = 0.701 | – | – | – | – | 931.36 | 934.84 | 938.28 | 941.72
303.15 K, x1 = 0.7881 | – | – | – | – | 934.01 | 937.52 | 941.01 | 944.48
303.15 K, x1 = 0.897 | – | – | – | – | 936.24 | 939.76 | 943.23 | 946.67
303.15 K, x1 = 0.9286 | – | – | – | – | 937.03 | 940.52 | 943.99 | 947.48
303.15 K, x1 = 0.961 | – | – | – | – | 937.54 | 941.04 | 944.51 | 947.99
313.15 K, x1 = 0.0303 | 792.52 | 797.34 | 802.01 | 806.47 | 810.73 | 814.85 | 818.84 | 822.75
313.15 K, x1 = 0.0601 | 808.67 | 813.36 | 817.9 | 822.24 | 826.41 | 830.42 | 834.31 | 838.11
313.15 K, x1 = 0.1002 | 826.53 | 831.11 | 835.57 | 839.84 | 843.93 | 847.86 | 851.66 | 855.32
313.15 K, x1 = 0.2005 | 857.05 | 861.4 | 865.62 | 869.66 | 873.55 | 877.31 | 880.98 | 884.59
313.15 K, x1 = 0.3009 | 876.08 | 880.25 | 884.34 | 888.29 | 892.1 | 895.78 | 899.34 | 902.8
313.15 K, x1 = 0.4008 | 888.55 | 892.6 | 896.62 | 900.51 | 904.28 | 907.92 | 911.43 | 914.81
313.15 K, x1 = 0.4516 | 893.1 | 897.1 | 901.09 | 904.98 | 908.76 | 912.41 | 915.91 | 919.27
313.15 K, x1 = 0.49 | 896.14 | 900.12 | 904.09 | 907.97 | 911.73 | 915.36 | 918.87 | 922.22
313.15 K, x1 = 0.552 | 900.13 | 904.12 | 908.1 | 911.97 | 915.72 | 919.34 | 922.83 | 926.18
313.15 K, x1 = 0.5881 | 902.29 | 906.26 | 910.2 | 914.04 | 917.76 | 921.35 | 924.82 | 928.16
313.15 K, x1 = 0.7048 | 907.14 | 911.12 | 915.08 | 918.92 | 922.65 | 926.25 | 929.72 | 933.06
313.15 K, x1 = 0.8042 | 910.23 | 914.21 | 918.18 | 922.04 | 925.78 | 929.4 | 932.87 | 936.18
313.15 K, x1 = 0.8998 | 912.3 | 916.37 | 920.38 | 924.25 | 927.99 | 931.6 | 935.1 | 938.49
313.15 K, x1 = 0.9373 | 913.06 | 917.05 | 921 | 924.83 | 928.56 | 932.18 | 935.71 | 939.17
313.15 K, x1 = 0.9651 | 913.5 | 917.5 | 921.47 | 925.34 | 929.11 | 932.78 | 936.35 | 939.83
